Results from patent publication US9682931B2, “Aryloyl(oxy or amino)pentafluorosulfanylbenzene compound, pharmaceutically acceptable salt thereof, and prodrugs thereof” (UBE INDUSTRIES, LTD., priority 2013, dated 2017).
In brackets after ≈: the same amount, converted by molar mass.

Legend:
[1] = biological target: T1, Topoisomerase II (Homo sapiens, UniProt P11388); assay: Topoisomerase II assay; format: biochemical; parameters: key to Inhibitory activity Topoisomerase II: ∘: Inhibitory activity is present; Δ: Weak inhibitory activity is present; x: No inhibitory activity is present
T1 construct: purchased
Method: (§1) The inhibitory action of a test substance (Compound 3) on Topoisomerase I and Topoisomerase II was examined.
2. Topoisomerase II Assay
Assay was performed in accordance with the attachment to Topoisomerase II Assay Kit, as follows.
(1) 10×Topo II Incomplete Assay A and 10×ATP Buffer B were mixed in equal amounts to prepare 5× Complete Assay Buffer (prepared when used).
(2) Assay solution was prepared in accordance with the following table.
(3) Incubated at 37° C. for 30 minutes (4) 5 μl of 5× Stop Buffer/gel loading dye was added (5) 1 μl of 1.3 mg/mL protease K solution (prepared with distilled water) was added (final concentration of protease K is 50 μg/mL) (6) Incubated at 37° C. for 20 minute (7) Total amount was applied to 1% agarose gel (containing EtBr) and analyzed by electrophoresis using a single concentration TAE buffer (prepared with distilled water). (8) After electrophoresis, the 1% agarose gel was stained with 0.5 μg/mL EtBr solution (prepared with single concentration TAE buffer) (9) Irradiated with UV ray and photographed.

[2] = biological target: T2, Topoisomerase I (Homo sapiens, UniProt P11387); assay: Topoisomerase I assay; format: biochemical; parameters: key to Inhibitory activity Topoisomerase I: ∘: Inhibitory activity is present; Δ: Weak inhibitory activity is present; x: No inhibitory activity is present
T2 sequence (P11387 1-765): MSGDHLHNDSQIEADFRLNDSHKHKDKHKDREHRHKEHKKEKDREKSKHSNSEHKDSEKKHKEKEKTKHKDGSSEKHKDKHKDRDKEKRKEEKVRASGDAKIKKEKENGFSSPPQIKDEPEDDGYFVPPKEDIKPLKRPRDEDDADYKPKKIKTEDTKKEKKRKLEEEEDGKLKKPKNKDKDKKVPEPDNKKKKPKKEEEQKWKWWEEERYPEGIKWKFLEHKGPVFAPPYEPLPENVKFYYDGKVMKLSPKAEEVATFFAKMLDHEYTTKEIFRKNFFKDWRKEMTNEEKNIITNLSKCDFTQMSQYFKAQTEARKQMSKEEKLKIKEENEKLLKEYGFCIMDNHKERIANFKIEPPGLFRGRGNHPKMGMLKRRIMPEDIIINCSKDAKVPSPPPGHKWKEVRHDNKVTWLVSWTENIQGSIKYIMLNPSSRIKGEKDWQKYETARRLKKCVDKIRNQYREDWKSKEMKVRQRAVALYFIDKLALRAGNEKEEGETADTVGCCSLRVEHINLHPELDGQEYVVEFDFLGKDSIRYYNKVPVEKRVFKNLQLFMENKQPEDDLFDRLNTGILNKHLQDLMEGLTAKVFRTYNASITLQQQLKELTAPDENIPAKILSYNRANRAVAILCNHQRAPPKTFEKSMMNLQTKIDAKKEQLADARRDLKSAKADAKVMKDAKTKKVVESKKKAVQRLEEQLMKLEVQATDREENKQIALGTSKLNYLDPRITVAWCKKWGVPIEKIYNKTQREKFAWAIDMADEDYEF
Method: as §1
Topoisomerase I (4 units) was subjected to the following assay performed in the assay conditions, which were determined by a preliminary examination, for a reaction time of 2 hours.
(1) An assay solution was prepared in accordance with the following table.

[3] = system: Trichophyton mentagrophytes NBRC5466 (trichophyton); assay: Antifungal test, minimum inhibitory concentration (MIC), trichophyton; format: cell-based; conditions: NBRC5466, 168 h, 27±2° C., 7 days
Method: Antimicrobial/Antifungal Test
Measurement of the Minimum Inhibitory Concentration (MIC) of a Test Substance
The minimum inhibitory concentration (MIC) of test substances (Compound 3, Compound 7) on a microorganism was measured.
1) Test Microbe (a) Staphylococcus aureus MRSAIID 1677 (methicillin-resistant staphylococcus aureus; MRSA) (b) Trichophyton mentagrophytes NBRC5466 (trichophyton)
2) Preparation of Microbe Solution for Inoculation
Test microbe (b): A strain cryopreserved was applied on PDA medium and cultured at 27±2° C. for 7 days. Spores were scraped out and suspended in a test microbe preparation solution, filtered with absorbent cotton. The solution was prepared so as to have a number of spores of about 10^6 CFU/mL. The test microbe solution prepared was serially diluted by 10-fold and cultured at 27±2° C. for 7 days and then the microbe cells were counted.
3) Serial Dilution of Test Substance
Two-fold serial dilutions of a test substance were prepared in the following procedure. To a test substance (1 mg), a medium (5 mL) for measuring the sensitivity of each microbe strains was added to obtain a stock solution of 200 μg/mL. […]
A test microbe solution (5 μL) was added dropwise to individual wells of the microplate. […] After culture, whether the microbe proliferated or not was determined by the naked eye. […]

T1 sequence (P11388 whole entry): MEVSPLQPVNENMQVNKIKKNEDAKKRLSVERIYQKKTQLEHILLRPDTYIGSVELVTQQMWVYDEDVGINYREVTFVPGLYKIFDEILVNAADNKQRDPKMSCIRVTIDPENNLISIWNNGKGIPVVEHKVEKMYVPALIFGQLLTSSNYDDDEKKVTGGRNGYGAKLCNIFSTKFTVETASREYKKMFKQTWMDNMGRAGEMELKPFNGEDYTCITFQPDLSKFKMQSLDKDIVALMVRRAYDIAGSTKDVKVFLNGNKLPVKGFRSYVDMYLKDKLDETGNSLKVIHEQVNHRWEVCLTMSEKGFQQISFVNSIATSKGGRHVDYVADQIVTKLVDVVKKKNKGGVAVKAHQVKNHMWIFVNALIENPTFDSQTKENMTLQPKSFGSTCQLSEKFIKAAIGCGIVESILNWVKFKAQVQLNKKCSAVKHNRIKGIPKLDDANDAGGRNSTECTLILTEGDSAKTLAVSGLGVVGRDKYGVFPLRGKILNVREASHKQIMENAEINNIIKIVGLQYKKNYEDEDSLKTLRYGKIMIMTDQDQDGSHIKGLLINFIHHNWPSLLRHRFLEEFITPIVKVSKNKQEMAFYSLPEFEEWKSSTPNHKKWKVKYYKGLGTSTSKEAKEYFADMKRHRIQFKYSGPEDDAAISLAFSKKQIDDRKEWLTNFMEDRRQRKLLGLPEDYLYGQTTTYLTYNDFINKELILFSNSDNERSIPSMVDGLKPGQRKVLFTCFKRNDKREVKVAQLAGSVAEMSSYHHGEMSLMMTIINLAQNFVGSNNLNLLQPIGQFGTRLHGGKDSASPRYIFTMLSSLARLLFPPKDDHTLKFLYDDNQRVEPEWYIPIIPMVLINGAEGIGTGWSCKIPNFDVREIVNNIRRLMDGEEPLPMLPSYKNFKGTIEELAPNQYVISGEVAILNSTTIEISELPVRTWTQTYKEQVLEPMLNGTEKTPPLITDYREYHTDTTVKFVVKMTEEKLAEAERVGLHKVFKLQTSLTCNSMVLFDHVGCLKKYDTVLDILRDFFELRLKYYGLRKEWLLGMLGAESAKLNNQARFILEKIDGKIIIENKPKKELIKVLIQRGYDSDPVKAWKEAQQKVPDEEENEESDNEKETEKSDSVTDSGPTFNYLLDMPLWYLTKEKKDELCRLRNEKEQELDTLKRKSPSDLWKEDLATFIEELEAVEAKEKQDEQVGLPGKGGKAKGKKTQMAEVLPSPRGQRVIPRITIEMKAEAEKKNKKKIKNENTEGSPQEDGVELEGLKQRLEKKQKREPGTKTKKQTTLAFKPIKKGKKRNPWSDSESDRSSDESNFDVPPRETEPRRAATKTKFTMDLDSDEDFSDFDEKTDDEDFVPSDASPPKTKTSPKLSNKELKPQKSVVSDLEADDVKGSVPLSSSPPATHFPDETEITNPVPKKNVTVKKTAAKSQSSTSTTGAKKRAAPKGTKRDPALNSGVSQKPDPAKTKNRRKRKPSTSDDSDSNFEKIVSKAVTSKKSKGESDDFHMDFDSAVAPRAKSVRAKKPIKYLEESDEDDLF

Row | SMILES | Topoisomerase II inhibitory activity ([1]; 5, 50 and 500 μg/mL) | Inhibitory activity Topoisomerase II ([1]; final concentration 0.5 μg/mL) | Inhibitory activity Topoisomerase II ([1]; final concentration 5 μg/mL) | Inhibitory activity Topoisomerase II ([1]; final concentration 50 μg/mL) | Inhibitory activity Topoisomerase II ([1]; final concentration 500 μg/mL) | Topoisomerase I inhibitory activity ([2]; 500 μg/mL) | Inhibitory activity Topoisomerase I ([2]; final concentration 0.5 μg/mL) | Inhibitory activity Topoisomerase I ([2]; final concentration 5 μg/mL) | Inhibitory activity Topoisomerase I ([2]; final concentration 50 μg/mL) | Inhibitory activity Topoisomerase I ([2]; final concentration 500 μg/mL) | MIC [3] [µg/mL]
1 | O=C(Nc1ccc(S(F)(F)(F)(F)F)cc1)c1cc(O)c(O)c(O)c1 [Compound 3, 4-(3,4,5-trihydroxybenzoylamino)pentafluorosulfanylbenzene] | inhibitory activity was observed | x | ∘ | ∘ | ∘ | inhibitory activity was confirmed | x | x | x | ∘ | –
2 | O=C(Oc1ccc(S(F)(F)(F)(F)F)cc1)c1cc(O)c(O)c(O)c1 [Compound 7, 4-(3,4,5-trihydroxybenzoyloxy)pentafluorosulfanylbenzene] | – | – | – | – | – | – | – | – | – | – | 6.3 (≈ 16.9 µM)
